Square brackets hold non-standard residues; d marks the D form. Peptide text beside a SMILES is read from it. Phe(4-NO2) = N[CH](Cc1ccc([N+](=O)[O-])cc1)C(=O)O; NMeY = CN[CH](Cc1ccc(O)cc1)C(=O)O; Sar = CNCC(=O)O

A short description of assay [1]: Binding affinities against Opioid receptor kappa 1 of guinea pig brain membrane using [3H]U69,593 as the radioligand using competition binding assays.
A short description of assay [2]: Binding affinities against Opioid receptor delta 1 of guinea pig brain membrane using [3H]DPDPE as the radioligand using competition binding assays.
The nature of assay [3]: Evaluated for inhibitory activity against Opioid receptor kappa 1 of rabbit vas deferens (RVD).

Broadly, the Ki is a dissociation constant, usually derived from enzyme kinetics or from competition with a known ligand. The low end stands for tighter binding, the high end for weaker binding. As to `CN[C@@H](Cc1ccc(O)cc1)C(=O)NCC(=O)NCC(=O)N[C@@H](Cc1ccccc1)C(=O)N[C@@H](CC(C)C)C(=O)N[C@@H](CCCNC(=N)N)C(=O)N(C)[C@@H](CCCNC(=N)N)C(=O)N[C@H](CC(C)C)C(N)=O` [2-{5-Guanidino-2-[(5-guanidino-2-{2-[2-(2-{2-[3-(4-hydroxy-phenyl)-2-methylamino-propionylamino]-acetylamino}-acetylamino)-3-phenyl-propionylamino]-4-methyl-pentanoylamino}-pentanoyl)-methyl-amino]-pentanoylamino}-4-methyl-pentanoic acid amide], the Ki in assay [1] worked out at 1.4 nM; in assay [2], 54 nM. Usually IC50 stands for the midpoint of a concentration-inhibition curve. Lower therefore signals greater potency. In assay [3], `CN[C@@H](Cc1ccc(O)cc1)C(=O)NCC(=O)NCC(=O)N[C@@H](Cc1ccccc1)C(=O)N[C@H](C)C(=O)N[C@@H](CCCNC(=N)N)C(=O)N[C@@H](CCCNC(=N)N)C(=O)N[C@H](CC(C)C)C(N)=O` [2-[5-Guanidino-2-(5-guanidino-2-{2-[2-(2-{2-[3-(4-hydroxy-phenyl)-2-methylamino-propionylamino]-acetylamino}-acetylamino)-3-phenyl-propionylamino]-propionylamino}-pentanoylamino)-pentanoylamino]-4-methyl-pentanoic acid amide] registered an IC50 of 13000 nM. For `CCNC(=O)[C@@H](CC(C)C)NC(=O)[C@H](CCCNC(=N)N)N(C)C(=O)[C@H](CCCNC(=N)N)NC(=O)[C@H](CC(C)C)NC(=O)[C@H](Cc1ccccc1)NC(=O)CNC(=O)CNC(=O)[C@H](Cc1ccc(O)cc1)NC` [2-[2-(2-{2-[3-(4-Hydroxy-phenyl)-2-methylamino-propionylamino]-acetylamino}-acetylamino)-3-phenyl-propionylamino]-4-methyl-pentanoic acid (1-{[1-(1-ethylcarbamoyl-3-methyl-butylcarbamoyl)-4-guanidino-butyl]-methyl-carbamoyl}-4-guanidino-butyl)-amide], in assay [3], it took 2.6 nM to reach half-maximal inhibition (IC50). Besides, the Ki in assay [1] came to 1.9 nM; in assay [2] it was 27 nM. For `CC[C@H](C)[C@H](NC(=O)[C@H](CCCNC(=N)N)NC(=O)[C@H](CCCNC(=N)N)NC(=O)[C@H](CC(C)C)NC(=O)[C@H](Cc1ccccc1)NC(=O)CNC(=O)CNC(=O)[C@@H](N)Cc1ccc(O)cc1)C(N)=O` [2-[2-(2-{2-[2-(2-{2-[2-Amino-3-(4-hydroxy-phenyl)-propionylamino]-acetylamino}-acetylamino)-3-phenyl-propionylamino]-4-methyl-pentanoylamino}-5-guanidino-pentanoylamino)-5-guanidino-pentanoylamino]-3-methyl-pentanoic acid amide], in that order: 17 nM, 1.2 nM and 24 nM.

`CN[C@@H](Cc1ccc(O)cc1)C(=O)NCC(=O)NCC(=O)N[C@@H](Cc1ccccc1)C(=O)N(C)[C@@H](CC(C)C)C(=O)N[C@@H](CCCNC(=N)N)C(=O)N[C@@H](CCCNC(=N)N)C(=O)N[C@H](CC(C)C)C(N)=O` [2-{5-Guanidino-2-[5-guanidino-2-(2-{[2-(2-{2-[3-(4-hydroxy-phenyl)-2-methylamino-propionylamino]-acetylamino}-acetylamino)-3-phenyl-propionyl]-methyl-amino}-4-methyl-pentanoylamino)-pentanoylamino]-pentanoylamino}-4-methyl-pentanoic acid amide]: the IC50 in assay [3] was determined as 189 nM. With `CC(C)C[C@H](NC(=O)[C@H](CCCNC(=N)N)NC(=O)[C@H](CCCNC(=N)N)NC(=O)[C@H](CC(C)C)NC(=O)[C@H](Cc1ccccc1)NC(=O)CNC(=O)CN(C)C(=O)[C@@H](N)Cc1ccc(O)cc1)C(N)=O` [2-{2-[2-(2-{2-[2-(2-{[2-Amino-3-(4-hydroxy-phenyl)-propionyl]-methyl-amino}-acetylamino)-acetylamino]-3-phenyl-propionylamino}-4-methyl-pentanoylamino)-5-guanidino-pentanoylamino]-5-guanidino-pentanoylamino}-4-methyl-pentanoic acid amide] (H-Y[Sar]GFLRRL-NH2), in assay [3], the IC50 was 738 nM. Turning to `CCNC(=O)[C@@H](CC(C)C)NC(=O)[C@H](CCCN=C(N)N)N(C)C(=O)[C@H](CCCN=C(N)N)NC(=O)[C@@H]1CSSC[C@@H](NC(=O)[C@@H](N)Cc2ccc(O)cc2)C(=O)NCC(=O)N[C@@H](Cc2ccccc2)C(=O)N1` [13-[2-Amino-3-(4-hydroxy-phenyl)-propionylamino]-7-benzyl-6,9,12-trioxo-1,2-dithia-5,8,11-triaza-cyclotetradecane-4-carboxylic acid (1-{[1-(1-ethylcarbamoyl-3-methyl-butylcarbamoyl)-4-guanidino-butyl]-methyl-carbamoyl}-4-guanidino-butyl)-amide], the Ki in assay [1] is 3 nM; in assay [2] it was 1.6 nM. `CCNC(=O)[C@@H](CC(C)C)NC(=O)[C@H](CCCN=C(N)N)N(C)C(=O)[C@H](CCCN=C(N)N)NC(=O)[C@H](CC(C)C)NC(=O)[C@H](Cc1ccc([N+](=O)[O-])cc1)NC(=O)CNC(=O)CNC(=O)[C@H](Cc1ccc(O)cc1)NC` [2-{5-Guanidino-2-[(5-guanidino-2-{2-[2-(2-{2-[3-(4-hydroxy-phenyl)-2-methylamino-propionylamino]-acetylamino}-acetylamino)-3-(4-nitro-phenyl)-propionylamino]-4-methyl-pentanoylamino}-pentanoyl)-methyl-amino]-pentanoylamino}-4-methyl-pentanoic acidN-ethyl amide]: the Ki in assay [1] was 3.9 nM; in assay [2], 18 nM. For `CNC(Cc1ccc(O)cc1)C(=O)NCC(=O)NCC(=O)NC(Cc1ccc([N+](=O)[O-])cc1)C(=O)NC(CC(C)C)C(=O)NC(CCCNC(=N)N)C(=O)NC(CCCNC(=N)N)C(=O)NC(CC(C)C)C(N)=O` (centres undefined) [2-[5-Guanidino-2-(5-guanidino-2-{2-[2-(2-{2-[3-(4-hydroxy-phenyl)-2-methylamino-propionylamino]-acetylamino}-acetylamino)-3-(4-nitro-phenyl)-propionylamino]-4-methyl-pentanoylamino}-pentanoylamino)-pentanoylamino]-4-methyl-pentanoic acid amide] (H-[NMeY]GG[Phe(4-NO2)]LRRL-NH2; configuration not given here), in that order: 0.77 nM and 29 nM. In turn, `CN[C@@H](Cc1ccc(O)cc1)C(=O)NCC(=O)NNC(=O)N[C@@H](Cc1ccccc1)C(=O)N[C@@H](CC(C)C)C(=O)N[C@@H](CCCNC(=N)N)C(=O)N[C@@H](CCCNC(=N)N)C(=O)N[C@H](CC(C)C)C(N)=O` yielded an IC50 in assay [3] of 152 nM. In assay [3], `CN[C@@H](Cc1ccc(O)cc1)C(=O)NCC(=O)NCC(=O)N[C@@H](Cc1ccccc1)C(=O)N[C@@H](CC(C)C)C(=O)N(C)[C@@H](CCCN=C(N)N)C(=O)N[C@@H](CCCN=C(N)N)C(=O)N[C@H](CC(C)C)C(N)=O` [2-{5-Guanidino-2-[5-guanidino-2-({2-[2-(2-{2-[3-(4-hydroxy-phenyl)-2-methylamino-propionylamino]-acetylamino}-acetylamino)-3-phenyl-propionylamino]-4-methyl-pentanoyl}-methyl-amino)-pentanoylamino]-pentanoylamino}-4-methyl-pentanoic acid amide] gave an IC50 of 1.1 nM.
